Results reported in publication PMC7343282, “Tissue Distribution of Several Series of Cationic Surfactants in Rainbow Trout (Oncorhynchus mykiss) Following Exposure via Water” (Environmental Science & Technology, 2020).

Tested on: rainbow trout (Oncorhynchus mykiss)
Test: Contribution of tissues to fish body burden
Assay type: in vivo
Conditions: for Contribution of Blood to the fish's body burden / Contribution of Gills to the fish's body burden / Contribution of Liver to the fish's body burden / Contribution of Mucus to the fish's body burden / Contribution of Other tissue (all apart from blood, liver, gills and skin; muscle concentration assumed) to body burden / Contribution of Skin to the fish's body burden: fraction; for % contribution to body burden, Gills / % contribution to body burden, Mucus / % contribution to body burden, Liver / % contribution to body burden, Skin / % contribution to body burden, Muscle: mean across fish, Figure 1; for % contribution to body burden, Liver / % contribution to body burden, Skin / % contribution to body burden, Muscle: Q10, Q14 maximum estimates; for % contribution to body burden, Muscle: includes all tissues not specifically analyzed
Excerpt: To calculate the quantity of the test chemical in the different tissues, the amount of each tissue in the fish was estimated and multiplied by the concentration in that tissue. The test chemical quantities in the different tissues were then summed to give the body burden in each fish. The total weight of the fish and the weight of the liver and gills were available from the dissection (Table S16). For skin and mucus, the estimated outer surface area of the fish was used. We note that the distinction between mucus and skin is an operational one determined by the extraction method; mucus can be viewed as a more readily extracted fraction of the test chemical residues at the fish surface. The volume of blood was taken as 0.0495 mL g^–1 fish.[30] The remaining tissue (difference between the weight of the whole fish and the weight of liver, gills, skin, and blood) was assumed to have the concentration measured in the muscle. The contribution of the different tissues to the body burden is given for each fish in Table S17, and the average contribution across all fish is plotted in Figure 1. All of the tissues, with the exception of blood, contribute at least 10% of the body burden for at least half of the test chemicals. There is no consistent negative correlation between the fraction of chemical associated with blood, muscle, and liver (tissues where the residue originates entirely from systemic uptake) and alkyl chain length (a measure of hydrophobicity). Thus, although adsorption to fish surfaces appears to play a significant role, its contribution to body burden cannot be simply predicted from surfactant hydrophobicity. In the following, we examine uptake in individual tissues.

CCCCCCCCCCCCCN [P13, tridecylamine]
Contribution of Blood to the fish's body burden (Fish #1): 0.013
Contribution of Gills to the fish's body burden (Fish #1): 0.27
Contribution of Liver to the fish's body burden (Fish #1): 0.24
Contribution of Mucus to the fish's body burden (Fish #1): 0.14
Contribution of Other tissue (all apart from blood, liver, gills and skin; muscle concentration assumed) to body burden (Fish #1): 0.17
Contribution of Skin to the fish's body burden (Fish #1): 0.17
Contribution of Blood to the fish's body burden (Fish #2): 0.014
Contribution of Gills to the fish's body burden (Fish #2): 0.27
Contribution of Liver to the fish's body burden (Fish #2): 0.23
Contribution of Mucus to the fish's body burden (Fish #2): 0.10
Contribution of Other tissue (all apart from blood, liver, gills and skin; muscle concentration assumed) to body burden (Fish #2): 0.17
Contribution of Skin to the fish's body burden (Fish #2): 0.21
Contribution of Blood to the fish's body burden (Fish #3): 0.016
Contribution of Liver to the fish's body burden (Fish #3): 0.16
Contribution of Mucus to the fish's body burden (Fish #3): 0.09
Contribution of Other tissue (all apart from blood, liver, gills and skin; muscle concentration assumed) to body burden (Fish #3): 0.24
Contribution of Skin to the fish's body burden (Fish #3): 0.20
Contribution of Blood to the fish's body burden (Fish #4): 0.013
Contribution of Gills to the fish's body burden (Fish #4): 0.35
Contribution of Liver to the fish's body burden (Fish #4): 0.15
Contribution of Mucus to the fish's body burden (Fish #4): 0.11
Contribution of Other tissue (all apart from blood, liver, gills and skin; muscle concentration assumed) to body burden (Fish #4): 0.17
Contribution of Skin to the fish's body burden (Fish #4): 0.21
Contribution of Blood to the fish's body burden (Fish #5): 0.013
Contribution of Gills to the fish's body burden (Fish #5): 0.28
Contribution of Liver to the fish's body burden (Fish #5): 0.23
Contribution of Mucus to the fish's body burden (Fish #5): 0.09
Contribution of Other tissue (all apart from blood, liver, gills and skin; muscle concentration assumed) to body burden (Fish #5): 0.17
Contribution of Skin to the fish's body burden (Fish #5): 0.23
Contribution of Blood to the fish's body burden (Fish #6): 0.013
Contribution of Gills to the fish's body burden (Fish #6): 0.26
Contribution of Liver to the fish's body burden (Fish #6): 0.27
Contribution of Mucus to the fish's body burden (Fish #6): 0.09
Contribution of Other tissue (all apart from blood, liver, gills and skin; muscle concentration assumed) to body burden (Fish #6): 0.17
Contribution of Skin to the fish's body burden (Fish #6): 0.20
Contribution of Blood to the fish's body burden (Mean): 0.014
Contribution of Gills to the fish's body burden (Mean): 0.28
Contribution of Liver to the fish's body burden (Mean): 0.21
Contribution of Mucus to the fish's body burden (Mean): 0.10
Contribution of Other tissue (all apart from blood, liver, gills and skin; muscle concentration assumed) to body burden (Mean): 0.18
Contribution of Skin to the fish's body burden (Mean): 0.20
% contribution to body burden, Gills: 28%
% contribution to body burden, Mucus: 10%
% contribution to body burden, Liver: 21%
% contribution to body burden, Skin: 20%
% contribution to body burden, Muscle: 18%

CCCCCCCCCCCCCCCCN [P16, hexadecylamine]
Contribution of Blood to the fish's body burden (Fish #1): 0.013
Contribution of Gills to the fish's body burden (Fish #1): 0.62
Contribution of Liver to the fish's body burden (Fish #1): 0.11
Contribution of Mucus to the fish's body burden (Fish #1): 0.04
Contribution of Other tissue (all apart from blood, liver, gills and skin; muscle concentration assumed) to body burden (Fish #1): 0.14
Contribution of Skin to the fish's body burden (Fish #1): 0.08
Contribution of Blood to the fish's body burden (Fish #2): 0.011
Contribution of Gills to the fish's body burden (Fish #2): 0.57
Contribution of Liver to the fish's body burden (Fish #2): 0.14
Contribution of Mucus to the fish's body burden (Fish #2): 0.03
Contribution of Other tissue (all apart from blood, liver, gills and skin; muscle concentration assumed) to body burden (Fish #2): 0.13
Contribution of Skin to the fish's body burden (Fish #2): 0.12
Contribution of Blood to the fish's body burden (Fish #3): 0.012
Contribution of Liver to the fish's body burden (Fish #3): 0.12
Contribution of Mucus to the fish's body burden (Fish #3): 0.04
Contribution of Other tissue (all apart from blood, liver, gills and skin; muscle concentration assumed) to body burden (Fish #3): 0.15
Contribution of Skin to the fish's body burden (Fish #3): 0.10
Contribution of Blood to the fish's body burden (Fish #4): 0.010
Contribution of Gills to the fish's body burden (Fish #4): 0.50
Contribution of Liver to the fish's body burden (Fish #4): 0.15
Contribution of Mucus to the fish's body burden (Fish #4): 0.04
Contribution of Other tissue (all apart from blood, liver, gills and skin; muscle concentration assumed) to body burden (Fish #4): 0.18
Contribution of Skin to the fish's body burden (Fish #4): 0.12
Contribution of Blood to the fish's body burden (Fish #5): 0.008
Contribution of Gills to the fish's body burden (Fish #5): 0.65
Contribution of Liver to the fish's body burden (Fish #5): 0.08
Contribution of Mucus to the fish's body burden (Fish #5): 0.05
Contribution of Other tissue (all apart from blood, liver, gills and skin; muscle concentration assumed) to body burden (Fish #5): 0.11
Contribution of Skin to the fish's body burden (Fish #5): 0.10
Contribution of Blood to the fish's body burden (Fish #6): 0.016
Contribution of Gills to the fish's body burden (Fish #6): 0.58
Contribution of Liver to the fish's body burden (Fish #6): 0.11
Contribution of Mucus to the fish's body burden (Fish #6): 0.06
Contribution of Other tissue (all apart from blood, liver, gills and skin; muscle concentration assumed) to body burden (Fish #6): 0.11
Contribution of Skin to the fish's body burden (Fish #6): 0.13
Contribution of Blood to the fish's body burden (Mean): 0.012
Contribution of Gills to the fish's body burden (Mean): 0.58
Contribution of Liver to the fish's body burden (Mean): 0.12
Contribution of Mucus to the fish's body burden (Mean): 0.04
Contribution of Other tissue (all apart from blood, liver, gills and skin; muscle concentration assumed) to body burden (Mean): 0.13
Contribution of Skin to the fish's body burden (Mean): 0.11
Share of body burden present in gills and mucus (in vivo): at least 50%
% contribution to body burden, Gills: 58%
% contribution to body burden, Mucus: 4%
% contribution to body burden, Liver: 12%
% contribution to body burden, Skin: 11%
% contribution to body burden, Muscle: 13%

CCCCCCCCCN [P9, Nonylamine]
Contribution of Blood to the fish's body burden (Fish #1): 0.016
Contribution of Gills to the fish's body burden (Fish #1): 0.36
Contribution of Liver to the fish's body burden (Fish #1): 0.09
Contribution of Mucus to the fish's body burden (Fish #1): 0.38
Contribution of Other tissue (all apart from blood, liver, gills and skin; muscle concentration assumed) to body burden (Fish #1): 0.08
Contribution of Skin to the fish's body burden (Fish #1): 0.07
Contribution of Blood to the fish's body burden (Fish #2): 0.017
Contribution of Gills to the fish's body burden (Fish #2): 0.26
Contribution of Liver to the fish's body burden (Fish #2): 0.20
Contribution of Mucus to the fish's body burden (Fish #2): 0.23
Contribution of Other tissue (all apart from blood, liver, gills and skin; muscle concentration assumed) to body burden (Fish #2): 0.14
Contribution of Skin to the fish's body burden (Fish #2): 0.15
Contribution of Blood to the fish's body burden (Fish #3): 0.021
Contribution of Liver to the fish's body burden (Fish #3): 0.17
Contribution of Mucus to the fish's body burden (Fish #3): 0.20
Contribution of Other tissue (all apart from blood, liver, gills and skin; muscle concentration assumed) to body burden (Fish #3): 0.14
Contribution of Skin to the fish's body burden (Fish #3): 0.16
Contribution of Blood to the fish's body burden (Fish #4): 0.010
Contribution of Gills to the fish's body burden (Fish #4): 0.28
Contribution of Liver to the fish's body burden (Fish #4): 0.19
Contribution of Mucus to the fish's body burden (Fish #4): 0.28
Contribution of Other tissue (all apart from blood, liver, gills and skin; muscle concentration assumed) to body burden (Fish #4): 0.12
Contribution of Skin to the fish's body burden (Fish #4): 0.11
Contribution of Blood to the fish's body burden (Fish #5): 0.012
Contribution of Gills to the fish's body burden (Fish #5): 0.35
Contribution of Liver to the fish's body burden (Fish #5): 0.08
Contribution of Mucus to the fish's body burden (Fish #5): 0.36
Contribution of Other tissue (all apart from blood, liver, gills and skin; muscle concentration assumed) to body burden (Fish #5): 0.12
Contribution of Skin to the fish's body burden (Fish #5): 0.09
Contribution of Blood to the fish's body burden (Fish #6): 0.018
Contribution of Gills to the fish's body burden (Fish #6): 0.26
Contribution of Liver to the fish's body burden (Fish #6): 0.08
Contribution of Mucus to the fish's body burden (Fish #6): 0.35
Contribution of Other tissue (all apart from blood, liver, gills and skin; muscle concentration assumed) to body burden (Fish #6): 0.10
Contribution of Skin to the fish's body burden (Fish #6): 0.19
Contribution of Blood to the fish's body burden (Mean): 0.016
Contribution of Gills to the fish's body burden (Mean): 0.30
Contribution of Liver to the fish's body burden (Mean): 0.14
Contribution of Mucus to the fish's body burden (Mean): 0.30
Contribution of Other tissue (all apart from blood, liver, gills and skin; muscle concentration assumed) to body burden (Mean): 0.12
Contribution of Skin to the fish's body burden (Mean): 0.13
% contribution to body burden, Gills: 30%
% contribution to body burden, Mucus: 30%
% contribution to body burden, Liver: 14%
% contribution to body burden, Skin: 13%
% contribution to body burden, Muscle: 12%
